System: Influenza A virus
Experiment: Antiviral activity against influenza A virus H1N1 infected in MDCK cells assessed as inhibition of virus-induced cytopathic effect after 48 hrs by crystal violet staining assay
Assay type: functional, organism-based

CC(C)=C1NC(=O)/C(=C(N)\C=C\C[C@H](C)O)C1=O
IC50: 276 µM

NC(=O)c1ncn([C@@H]2O[C@H](CO)[C@@H](O)[C@H]2O)n1 [RIBAVIRIN]
IC50: 131 µM

Reference: ChEMBL document CHEMBL3108766, “Cladosins A-E, hybrid polyketides from a deep-sea-derived fungus, Cladosporium sphaerospermum” (J Nat Prod, 2014)
